Values joined by “and” are separate entries in the source; they are usually repeats but may differ in a detail not shown here. Equal values may be shown once.
Key:
[1] = system: Balb/c mice, 6.11 Gy gamma-radiation; assay: Radiation-induced pneumonitis mouse model: lung damage; format: in vivo; conditions: 50 or 250 mg/kg daily Day 0 to 3
Method: To examine the effect of EC-18 on the lung damage in pneumonitis, female Balb/c mice (n=3/group) were exposed to 6.11 Gy of gamma-radiation at Day 0. EC-18 at 50 or 250 mg/kg was administered daily from Day 0 to 3. To verify the vascular leakage of the lung due to radiation exposure, Evans blue staining was diluted with PBS and injected i.v. into mice 30 mins before sacrificing them on Day 3 (FIG. 56).
The further microscopical analysis was conducted by extracting the lung after sacrificing the mice. The perfused lung tissues were fixed in 10% buffered formalin for 24 hrs, embedded in paraffin, sectioned at 4 μm, and stained with hematoxylin and eosin (H&E) staining. […] In contrast, the infiltration of the RBCs into the lung tissues was not observed in both the EC-18-treated group.

[2] = system: Pseudomonas aeruginosa K (PAK); assay: Co-culture of bone marrow-derived monocytes with PAK, CFU; format: cell-based; conditions: 100 μg/mL 1 hr; PAK MOI 50
Method: Structural-Activity Relationship Work of EC-18 To assess the optimal structure of EC-18, structural-activity relationship work was examined. A total of five structural analogs of EC-18 were selected by changing one fatty acid chain structure (red boxes in FIG. 43) and evaluated in bone marrow-derived monocytes co-cultured with Pseudomonas aeruginosa K (PAK). All analogs along with EC-18 were inoculated with PAK at the multiplicity of infection (MOI) of 50 for 30 mins and then, treated for 1 hr at the dosage of 100 μg/mL.
As a measure of […], the colony-forming units (CFUs) from each group were examined.

[3] = system: C57BL/6J mice, 680 cGy TBI; assay: 30-day survival in C57BL/6J mice after LD70/30 (680 cGy) TBI; format: in vivo, mouse; conditions: for Dead/Moribund, Females (percent) / Dead/Moribund, Males (percent): N=24; for Dead/Moribund, All Animals (percent): N=48
Method: The objective of this study was to evaluate the 30-day survival benefit of EC-18 in male and female C57BL/6J mice when administered by daily oral gavage at doses ranging from 100-375 mg/kg/day, for 30 consecutive days beginning approximately 24 hrs after a single LD70/30 dose (680 cGy) of TBI. The study had 4 dose groups, each with 24 animals of each sex, Group 1 animals were administered sterile PBS, Groups 2, 3, and 4 were administered EC-18 at 100, 250, and 375 mg/kg/day, respectively. Dose volumes were determined using the most recently recorded body weight. Survival was monitored for 30 days post irradiation, with early removal criterion used to determine morbidity. Clinical observations were recorded daily before administration of vehicle or test article. […] Body weights were recorded minimally 3 times per week, daily for animals with weight loss of ≥15%, or twice daily for animals with ≥20% weight loss.

SD rat = assay: Repeated dose toxicity, SD rat; format: in vivo; conditions: Oral
From the text: (§1) Various toxicology studies have been performed. All studies were GLP-compliant unless otherwise noted.

[4] = Repeated dose toxicity, SD rat; format: in vivo; conditions: SD, rat, in vivo, Oral
From the text: as §1

[5] = Repeated dose toxicity, Beagle dog; format: in vivo; conditions: Beagle, dog, in vivo, Oral
From the text: as §1

Beagle dog = assay: Repeated dose toxicity, Beagle dog; format: in vivo; conditions: Oral
From the text: as §1

Balb/c mice, 6.11 Gy TBI = assay: Dosing schedule optimization (delayed treatment) in LD70/30 model; format: in vivo, mouse
Method: EC-18 was administered daily in-life with its optimal dosage (250 mg/kg) at 0, 1, 2, and 3 days after irradiation on Day 0. To examine the durable efficacy of EC-18, the survival was examined 15 days after the in-life phase without the daily treatment of EC-18.
EC-18 was administered daily in-life with its optimal dosage (250 mg/kg) at 0, 1, 2, and 3 days after irradiation on Day 0. The survival rate of the γ-radiation only group was 35%. The percentages of survival of the irradiated mice with EC-18+0d, +1d, +2d, and +3d were 80, 70, 55, and 80%, respectively (FIG. 72).

CYP3A4 = CYP3A4 (Homo sapiens, UniProt P08684); assay: CYP enzyme inhibition in human liver microsomes, CYP3A4
Chain of CYP3A4 (P08684 whole entry): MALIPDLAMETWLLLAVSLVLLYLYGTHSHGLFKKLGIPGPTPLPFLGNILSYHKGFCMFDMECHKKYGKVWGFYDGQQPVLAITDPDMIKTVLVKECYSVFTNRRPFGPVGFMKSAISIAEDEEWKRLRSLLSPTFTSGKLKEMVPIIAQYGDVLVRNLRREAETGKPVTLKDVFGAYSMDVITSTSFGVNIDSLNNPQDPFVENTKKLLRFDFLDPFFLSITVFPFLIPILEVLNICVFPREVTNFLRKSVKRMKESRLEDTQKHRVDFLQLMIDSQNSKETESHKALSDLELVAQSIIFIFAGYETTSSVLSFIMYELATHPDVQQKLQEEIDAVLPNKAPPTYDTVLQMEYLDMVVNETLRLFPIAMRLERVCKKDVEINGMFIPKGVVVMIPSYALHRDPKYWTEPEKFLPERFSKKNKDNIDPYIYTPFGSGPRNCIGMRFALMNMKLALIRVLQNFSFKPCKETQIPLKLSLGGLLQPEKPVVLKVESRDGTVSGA
From the text: CYP1A2, CYP2C9, CYP2C19, CYP2D6, and CYP3A4 are the CYP subfamily, which plays a critical role in the metabolism of most drugs.

[6] = 6.11 Gy, 250 mg/kg daily starting +0 d
[7] = 6.11 Gy, 250 mg/kg daily starting +1 d
[8] = 6.11 Gy, 250 mg/kg daily starting +2 d
[9] = 6.11 Gy, 250 mg/kg daily starting +3 d
[10] = 6.11 Gy, 250 mg/kg daily starting +3 d, 250 mg/kg

SMILES: CCCCC/C=C\C/C=C\CCCCCCCC(=O)OC(COC(C)=O)COC(=O)CCCCCCCCCCCCCCC (stereo not shown) [EC-18, 1-palmitoyl-2-linoleoyl-3-acetylglycerol]
- infiltration of RBCs into the lung tissues (H&E) [1]: not observed
- vascular leakage of the lung (Evans blue) [1]: mitigated the vascular leakage
- colony-forming units (CFUs) vs other analogs or control groups [2]: significantly higher
- combined sex survival ([3]; Group 2, 100 mg/kg/day): 21%
- increased survival above vehicle control, females ([3]; Group 2, 100 mg/kg/day): 29%
- survival, males ([3]; Group 2-4 (100-375 mg/kg/day)): 0-8%
- combined sex survival ([3]; Group 3, 250 mg/kg/day): 25%
- increased survival above vehicle control, females ([3]; Group 3, 250 mg/kg/day): 46%
- combined sex survival ([3]; Group 4, 375 mg/kg/day): 29%
- increased survival above vehicle control, females ([3]; Group 4, 375 mg/kg/day): 46%
- Dead/Moribund, Females (percent) ([3]; Grp 2: 100 mg/kg): 16 (67%)
- Dead/Moribund, Males (percent) ([3]; Grp 2: 100 mg/kg): 22 (92%)
- Dead/Moribund, All Animals (percent) ([3]; Grp 2: 100 mg/kg): 38 (79%)
- Dead/Moribund, Females (percent) ([3]; Grp 3: 250 mg/kg): 12 (50%)
- Dead/Moribund, Males (percent) ([3]; Grp 3: 250 mg/kg): 24 (100%)
- Dead/Moribund, All Animals (percent) ([3]; Grp 3: 250 mg/kg): 36 (75%)
- Dead/Moribund, Females (percent) ([3]; Grp 4: 375 mg/kg): 12 (50%)
- Dead/Moribund, Males (percent) ([3]; Grp 4: 375 mg/kg): 22 (92%)
- Dead/Moribund, All Animals (percent) ([3]; Grp 4: 375 mg/kg): 34 (71%)
- mean body weights vs vehicle ([3]; any study day): no statistically significant differences
- findings (SD rat; 4 weeks (DRF)): No specific findings
- mortality (SD rat; 4 weeks (DRF), 0, 500, 1000, 2000 mg/kg): No dead animals
- findings (SD rat; 13 weeks): No specific findings
- mortality (SD rat; 13 weeks, 0, 500, 1000, 2000 mg/kg): No dead animals
- findings (SD rat; 26 weeks (4-week recovery)): No specific findings
- mortality (SD rat; 26 weeks (4-week recovery), male in 500 mg/kg group, 41st day, no relationship to EC-18 dosing): A single case of death
- NOAEL at 4 weeks ([4]; 4 weeks (DRF)): > 2000 mg/kg/day
- NOAEL at 13 weeks ([4]; 13 weeks): > 2000 mg/kg/day
- NOAEL at 26 weeks ([4]; 26 weeks (4-week recovery)): > 2000 mg/kg/day
- NOAEL at 2 weeks ([5]; 2 weeks): > 2000 mg/kg/day
- NOAEL at 4 weeks ([5]; 4 weeks (2-week recovery)): > 2000 mg/kg/day
- NOAEL at 9 months ([5]; 9 months (4-week recovery)): 2000 mg/kg/day
- NOAEL at 13 weeks ([5]; 13 weeks (4-week recovery)): > 2000 mg/kg/day
- mortality (Beagle dog; 2 weeks, 0, 500, 1000, 2000 mg/kg): No dead animals
- findings (Beagle dog; 2 weeks, males and females in 1000 and 2000 mg/kg dose groups): Grayish stool observed
- mortality (Beagle dog; 4 weeks (2-week recovery)): No dead animals
- findings (Beagle dog; 4 weeks (2-week recovery), drug administration groups): Grayish stool observed
- findings (soft stool and grayish stool; early diarrhea; no toxicological significance) (Beagle dog; 9 months (4-week recovery)): Dose-dependent soft
- mortality (Beagle dog; 9 months (4-week recovery)): No dead animals
- findings (grayish stool observed) (Beagle dog; 13 weeks (4-week recovery)): Dose-dependent grayish
- mortality (Beagle dog; 13 weeks (4-week recovery)): No dead animals
- survival vs negative control (Balb/c mice, 6.11 Gy TBI; 250 mg/kg, even up to 3-day-delayed treatment regimen): significantly improved
- weight loss induced by irradiation (Balb/c mice, 6.11 Gy TBI; 6.11 Gy, 250 mg/kg): effectively prevented and rapidly recovered weight loss
- No. of mice that survived/total (Balb/c mice, 6.11 Gy TBI; [6]): 16/20
- Survival (Balb/c mice, 6.11 Gy TBI; [6]): 80%
- Survival time of decedents, Median (Balb/c mice, 6.11 Gy TBI; [6]): 24.5 days
- Survival time of decedents, Mean ± SEM (Balb/c mice, 6.11 Gy TBI; 6.11 Gy, 250 mg/kg daily starting +0 d, 250 mg/kg): 25.0 days and 25.0 ± 1.1 days
- No. of mice that survived/total (Balb/c mice, 6.11 Gy TBI; [7]): 14/20
- Survival (Balb/c mice, 6.11 Gy TBI; [7]): 70%
- Survival time of decedents, Median (Balb/c mice, 6.11 Gy TBI; [7]): 23.5 days
- Survival time of decedents, Mean ± SEM (Balb/c mice, 6.11 Gy TBI; 6.11 Gy, 250 mg/kg daily starting +1 d, 250 mg/kg): 23.7 days and 23.7 ± 1.4 days
- No. of mice that survived/total (Balb/c mice, 6.11 Gy TBI; [8]): 11/20
- Survival (Balb/c mice, 6.11 Gy TBI; [8]): 55%
- Survival time of decedents, Median (Balb/c mice, 6.11 Gy TBI; [8]): 18.0 days
- Survival time of decedents, Mean ± SEM (Balb/c mice, 6.11 Gy TBI; 6.11 Gy, 250 mg/kg daily starting +2 d, 250 mg/kg): 18.1 days and 18.1 ± 0.8 days
- No. of mice that survived/total (Balb/c mice, 6.11 Gy TBI; [9]): 11/20
- Survival time of decedents, Median (Balb/c mice, 6.11 Gy TBI; [9]): 23.0 days
- Survival (Balb/c mice, 6.11 Gy TBI; [10]): 80% and 55%
- Survival time of decedents, Mean ± SEM (Balb/c mice, 6.11 Gy TBI; [10]): 22.3 days and 22.3 ± 1.6 days
- durable efficacy after withdrawal of EC-18 (Balb/c mice, 6.11 Gy TBI; 15 days after the in-life phase without daily treatment): extended the survival of animals for an extra 15 days
- IC50 (CYP3A4): 26.8 µM
